# Laboratory results reported in ChEMBL document CHEMBL1201862, “PubChem BioAssay data set” (2004).
#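 All cell lines were grown in 96-well plates and treated with compound for 48 hours. At the GI50, growth is halved.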 The source made the active and inactive calls. No stated cut-off is given here; in the data, active = GI50 up to about 1.1 µM and inactive = higher.
# Assays:
# Assay in all cases: NCI-60 cell line screen, 48 h
# M14 = test system: M14
# SW-620 = test system: SW-620
# HT-29 = test system: HT-29
# OVCAR-5 = test system: OVCAR-5
# CAKI-1 = test system: CAKI-1
# U-251 = test system: U-251
# A549 = test system: A549
# ACHN = test system: ACHN
# 786-0 = test system: 786-0
# HCT-116 = test system: HCT-116
# HOP-92 = test system: HOP-92
# SK-OV-3 = test system: SK-OV-3
# UO-31 = test system: UO-31
# NCI-H226 = test system: NCI-H226
# SNB-75 = test system: SNB-75
# SNB-19 = test system: SNB-19
# NCI-H460 = test system: NCI-H460
# SK-MEL-2 = test system: SK-MEL-2
# Malme-3M = test system: Malme-3M
# IGROV-1 = test system: IGROV-1
# UACC-257 = test system: UACC-257
# HOP-62 = test system: HOP-62
# DLD-1 = test system: DLD-1
# LXFL 529 = test system: LXFL 529
# SK-MEL-5 = test system: SK-MEL-5
# HOP-18 = test system: HOP-18
# RPMI-8226 = test system: RPMI-8226
# HCC 2998 = test system: HCC 2998
# UACC-62 = test system: UACC-62
# M19-MEL = test system: M19-MEL
# OVCAR-4 = test system: OVCAR-4
# SNB-78 = test system: SNB-78
# COLO 205 = test system: COLO 205
# KM-20L2 = test system: KM-20L2
# MOLT-4 = test system: MOLT-4
# SK-MEL-28 = test system: SK-MEL-28
# MDA-MB-435 = test system: MDA-MB-435
# SN12C = test system: SN12C
# NCI-H522 = test system: NCI-H522
# CCRF-CEM = test system: CCRF-CEM
# RXF 393 = test system: RXF 393
# DU-145 = test system: DU-145
# T47D = test system: T47D
# NCI-H23 = test system: NCI-H23
# SF-295 = test system: SF-295
# OVCAR-3 = test system: OVCAR-3
# MDA-N = test system: MDA-N
# EKVX = test system: EKVX
# LOX IMVI = test system: LOX IMVI
# MDA-MB-231 = test system: MDA-MB-231
# HCT-15 = test system: HCT-15
# NCI/ADR-RES = test system: NCI/ADR-RES
# SR = test system: SR
# TK-10 = test system: TK-10
# HL-60 = test system: HL-60
# MCF7 = test system: MCF7
# Hs-578T = test system: Hs-578T
# SF-268 = test system: SF-268
# BT-549 = test system: BT-549
# OVCAR-8 = test system: OVCAR-8
# A498 = test system: A498
# PC-3 = test system: PC-3
# SF-539 = test system: SF-539
# K562 = test system: K562
# KM12 = test system: KM12
structure (smiles),measurement,setting,value
CC(NC1CCCC[C@H]1O)c1ccccc1 (stereo not given in full),GI50,M14,> 100 µM (inactive)
same,GI50,SW-620,> 100 µM (inactive)
same,GI50,HT-29,> 100 µM (inactive)
same,GI50,OVCAR-5,> 100 µM (inactive)
same,GI50,CAKI-1,> 100 µM (inactive)
same,GI50,U-251,> 100 µM (inactive)
same,GI50,A549,> 100 µM (inactive)
same,GI50,ACHN,> 100 µM (inactive)
same,GI50,786-0,> 100 µM (inactive)
same,GI50,HCT-116,> 100 µM (inactive)
same,GI50,HOP-92,> 100 µM (inactive)
same,GI50,SK-OV-3,> 100 µM (inactive)
same,GI50,UO-31,> 100 µM (inactive)
same,GI50,NCI-H226,> 100 µM (inactive)
same,GI50,SNB-75,> 100 µM (inactive)
same,GI50,SNB-19,> 100 µM (inactive)
same,GI50,NCI-H460,> 100 µM (inactive)
same,GI50,SK-MEL-2,> 100 µM (inactive)
same,GI50,Malme-3M,> 100 µM (inactive)
same,GI50,IGROV-1,> 100 µM (inactive)
same,GI50,UACC-257,> 100 µM (inactive)
same,GI50,HOP-62,> 100 µM (inactive)
same,GI50,DLD-1,> 100 µM (inactive)
same,GI50,LXFL 529,> 100 µM (inactive)
same,GI50,SK-MEL-5,> 100 µM (inactive)
same,GI50,HOP-18,> 100 µM (inactive)
same,GI50,RPMI-8226,> 100 µM (inactive)
same,GI50,HCC 2998,> 100 µM (inactive)
same,GI50,UACC-62,> 100 µM (inactive)
same,GI50,M19-MEL,> 100 µM (inactive)
same,GI50,OVCAR-4,> 100 µM (inactive)
same,GI50,SNB-78,> 100 µM (inactive)
same,GI50,COLO 205,> 100 µM (inactive)
same,GI50,KM-20L2,> 100 µM (inactive)
same,GI50,MOLT-4,> 100 µM (inactive)
same,GI50,SK-MEL-28,> 100 µM (inactive)
O=C(Nn1cc(F)c(=O)[nH]c1=O)C12CC3CC(CC(C3)C1)C2,GI50,M14,15.1 µM (inactive)
same,GI50,SW-620,15.5 µM (inactive)
same,GI50,HT-29,8.17 µM (inactive)
same,GI50,MDA-MB-435,10 µM (inactive)
same,GI50,SN12C,11.5 µM (inactive)
same,GI50,OVCAR-5,21.7 µM (inactive)
same,GI50,CAKI-1,4.6 µM (inactive)
same,GI50,NCI-H522,16.6 µM (inactive)
same,GI50,CCRF-CEM,13 µM (inactive)
same,GI50,RXF 393,16.4 µM (inactive)
same,GI50,U-251,19.3 µM (inactive)
same,GI50,A549,6.27 µM (inactive)
same,GI50,ACHN,10.7 µM (inactive)
same,GI50,786-0,10.7 µM (inactive)
same,GI50,DU-145,8.3 µM (inactive)
same,GI50,HCT-116,5.77 µM (inactive)
same,GI50,HOP-92,8.69 µM (inactive)
same,GI50,T47D,20.2 µM (inactive)
same,GI50,NCI-H23,7.73 µM (inactive)
same,GI50,SK-OV-3,18.4 µM (inactive)
same,GI50,SF-295,26.6 µM (inactive)
same,GI50,UO-31,8.2 µM (inactive)
same,GI50,OVCAR-3,10.4 µM (inactive)
same,GI50,NCI-H226,38.9 µM (inactive)
same,GI50,SNB-75,24.8 µM (inactive)
same,GI50,MDA-N,8.97 µM (inactive)
same,GI50,SNB-19,28.6 µM (inactive)
same,GI50,EKVX,24 µM (inactive)
same,GI50,LOX IMVI,7.8 µM (inactive)
same,GI50,NCI-H460,1.91 µM (inactive)
same,GI50,SK-MEL-2,23.2 µM (inactive)
same,GI50,MDA-MB-231,12.7 µM (inactive)
same,GI50,Malme-3M,6.73 µM (inactive)
same,GI50,HCT-15,6.56 µM
same,GI50,IGROV-1,6.61 µM (inactive)
same,GI50,UACC-257,22 µM (inactive)
same,GI50,HOP-62,12 µM (inactive)
same,GI50,NCI/ADR-RES,24.2 µM (inactive)
same,GI50,SR,4.05 µM (inactive)
same,GI50,TK-10,18.1 µM (inactive)
same,GI50,SK-MEL-5,3.2 µM (inactive)
same,GI50,HL-60,9.46 µM (inactive)
same,GI50,MCF7,5.22 µM (inactive)
same,GI50,Hs-578T,25.4 µM (inactive)
same,GI50,RPMI-8226,6.93 µM (inactive)
same,GI50,SF-268,29.2 µM (inactive)
same,GI50,HCC 2998,0.646 µM (active)
same,GI50,UACC-62,7.59 µM (inactive)
same,GI50,OVCAR-4,10.2 µM (inactive)
same,GI50,BT-549,17.5 µM (inactive)
same,GI50,OVCAR-8,22.6 µM (inactive)
same,GI50,A498,7.24 µM (inactive)
same,GI50,COLO 205,9.75 µM (inactive)
same,GI50,PC-3,10.7 µM (inactive)
same,GI50,SF-539,2.21 µM (inactive)
same,GI50,K562,14.6 µM (inactive)
same,GI50,KM12,6.27 µM (inactive)
same,GI50,MOLT-4,16 µM (inactive)
same,GI50,SK-MEL-28,12.9 µM (inactive)
